PMC3900249 (Clinical pharmacology and therapeutics, 2012)

What was measured:
[1] = tested on: CYP2C9-mediated (S)-warfarin 7-hydroxylation; assay: Prediction of in vivo warfarin drug interaction from [I]/KI and [I]u/KI,u; design: species or system human; details: equation 1
[2] = single warfarin dose studies, healthy volunteers (n = 5 or 6); cited from earlier work

## CC(=O)C[C@@H](c1ccccc1)c1c(O)c2ccccc2oc1=O [(S)-warfarin]
[1]; sum of [I]/KI ratios of AMIO and circulating metabolites
  predicted increase in AUC: 6 fold
[1]; sum of [I]u/KI,u ratios of AMIO and circulating metabolites
  predicted increase in AUC: 6 fold
[2]
  actual increase in the mean AUC caused by the drug interaction with AMIO: 27 to 110%
